From ChEMBL document CHEMBL1149957, “MALONIC ACID DERIVATIVES AS SIALYL LEWIS X MIMETICS” (Bioorg Med Chem Lett, 1997)

Legend:
[1] = system: HL-60; assay: Tested for the inhibition of HL60 cell adhesion to recombinant E-selectin-IgG fusion protein measured by cell culture assay.; format: functional, cell-based; settings: Homo sapiens
[2] = system: HL-60; assay: Tested for the inhibition of HL60 cell adhesion to recombinant P-selectin-IgG fusion protein measured by cell culture assay.; format: functional, cell-based; settings: Homo sapiens
[3] = system: Rattus norvegicus; assay: Tested for the inhibition of leukocyte adhesion in rat mesenteric venules in vivo at a dose of 3 mg/kg measured by intravital microscopy.; format: functional
[4] = system: Rattus norvegicus; assay: Tested for the inhibition of leukocyte adhesion in rat mesenteric venules in vivo at a dose of 10 mg/kg measured by intravital microscopy.; format: functional
[5] = system: Rattus norvegicus; assay: Tested for the inhibition of leukocyte adhesion in rat mesenteric venules in vivo at a dose of 1 mg/kg measured by intravital microscopy.; format: functional

| SMILES | IC50 [1] [mM] | IC50 [2] [mM] | inhibition in vivo at 3 mg/kg [3] [%] | inhibition in vivo at 10 mg/kg [4] [%] | inhibition in vivo at 1 mg/kg [5] [%] |
| --- | --- | --- | --- | --- | --- |
| CC1OC(OC2CCCCC2OCCCCC(C(=O)O)C(=O)O)C(O)C(O)C1O (configuration not stated) | > 5 | > 5 | – | – | – |
| CC1OC(OC2C(OCCCCC(C(=O)O)C(=O)O)CCOC2COCCCCc2ccccc2)C(O)C(O)C1O (configuration not stated) | 4.8 | 3.6 | 62 | – | – |
| CC1OC(OC2CCCCC2OCCCCCC(C(=O)O)C(=O)O)C(O)C(O)C1O (configuration not stated) | > 5 | > 5 | – | – | – |
| CC1OC(OC2CCCCC2OC(=O)NCCCCC(C(=O)O)C(=O)O)C(O)C(O)C1O (configuration not stated) | 4 | 4.5 | – | – | – |
| CC1OC(OC2CCCCC2OCCCCCCCCCCC(C(=O)O)C(=O)O)C(O)C(O)C1O (configuration not stated) | > 5 | > 5 | – | – | – |
| CC1OC(OC2CCCCC2OCCCCCCCCC(C(=O)O)C(=O)O)C(O)C(O)C1O (configuration not stated) | > 5 | > 5 | – | – | – |
| CC1OC(OC2CCCCC2OCCCCCCCC(C(=O)O)C(=O)O)C(O)C(O)C1O (configuration not stated) | > 5 | > 5 | – | – | – |
| CC1OC(OC2CCCCC2OCCCC(C(=O)O)C(=O)O)C(O)C(O)C1O (configuration not stated) | > 5 | > 5 | – | – | – |
| CC1OC(OC2CCCCC2OCCCCCCC(C(=O)O)C(=O)O)C(O)C(O)C1O (configuration not stated) | > 5 | > 5 | – | – | – |

Compounds with a lower IC50 [1], results first:

| IC50 [1] [mM] | IC50 [2] [mM] | SMILES | inhibition in vivo at 3 mg/kg [3] [%] | inhibition in vivo at 10 mg/kg [4] [%] | inhibition in vivo at 1 mg/kg [5] [%] |
| --- | --- | --- | --- | --- | --- |
| 3.4 | 3.5 | CC1OC(OC2CCCCC2OC(=O)NCCC(C(=O)O)C(=O)O)C(O)C(O)C1O (configuration not stated) | – | 58 | – |
| 2.6 | 1.2 | CC1OC(OC2C(OCCCCCC(C(=O)O)C(=O)O)CCOC2COCCCCc2ccccc2)C(O)C(O)C1O (configuration not stated) | 65 | – | – |
| 1.5 | 3 | CC(=O)N[C@H]1[C@H]([C@@H](O)[C@@H](O)CO)O[C@@](O[C@@H]2[C@H](O)[C@H](O[C@H]3[C@H](O[C@@H]4O[C@@H](C)[C@@H](O)[C@H](O)[C@@H]4O)[C@H](NC(C)=O)C(O)O[C@H]3CO)O[C@@H](CO)[C@@H]2O)(C(=O)O)C[C@H]1O (some centres not stated) | – | – | – |
| 1 | 0.7 | CC1OC(OC2CCCCC2OC(=O)NCCCC(C(=O)O)C(=O)O)C(O)C(O)C1O (configuration not stated) | 44 | 85 | 54 |
